ChEMBL document CHEMBL1140289, “Studies on the apoptotic activity of natural and synthetic retinoids: discovery of a new class of synthetic terphenyls that potently support cell growth and inhibit apoptosis in neuronal and HL-60 cells” (2005)

Key:
HL-60 [1] = assay: Effect (1 uM) on HL-60 cell growth cultured for 72 hours in nonsupplemented serum-free medium; format: functional, Homo sapiens
HL-60 [2] = assay: Effect (1 uM) on HL-60 cell apoptosis cultured for 72 hours in nonsupplemented serum-free medium; format: functional, Homo sapiens

SMILES | Activity (HL-60 [1]) | Apoptosis (HL-60 [2]) [%]
CC1(C)CCC(C)(C)c2cc(/C=C/c3ccc(C(=O)O)cc3)ccc21 | 155 no. of living cells (10E3) /mL | 36
COc1cc(-c2ccccc2-c2ccc(C(=O)O)cc2)cc(OC)c1OC | 220 no. of living cells (10E3) /mL | 22
COc1cc(-c2ccc(-c3ccc(C(=O)O)cc3)cc2)cc(OC)c1OC | 300 no. of living cells (10E3) /mL | 18
CC(=O)OC[C@H](OC(C)=O)[C@@](C)(O)/C=C/C=C(C)/C=C/C1=C(C)CCCC1(C)C | 207 no. of living cells (10E3) /mL | 30
CC(=O)OC[C@H](OC(C)=O)/C(C)=C/C=C/C(C)=C/C=C1/C(C)=CCCC1(C)C | 129 no. of living cells (10E3) /mL | 40
CC1=C(/C=C/C(C)=C/C=C/[C@](C)(O)[C@@H](O)CO)C(C)(C)CCC1 | 149 no. of living cells (10E3) /mL | 37
COc1cc(/C=C/c2ccc(C(=O)O)cc2)cc(OC)c1OC | 166 no. of living cells (10E3) /mL | 36
CC(=O)CC[C@H](O)[C@@](C)(O)/C=C/C=C(C)/C=C/C1=C(C)CCCC1(C)C | 129 no. of living cells (10E3) /mL | 41
CC1=CCCC(C)(C)\C1=C/C=C(C)/C=C/C=C(\C)[C@@H](O)CO | 181 no. of living cells (10E3) /mL | 34
COc1cc(/C=C\c2ccc(C(=O)O)cc2)cc(OC)c1OC | 100 no. of living cells (10E3) /mL | 42
CC1(C)CCC(C)(C)c2cc(/C=C\c3ccc(C(=O)O)cc3)ccc21 | 100 no. of living cells (10E3) /mL | 43
COc1cc(-c2cccc(-c3ccc(C(=O)O)cc3)c2)cc(OC)c1OC | 350 no. of living cells (10E3) /mL | 17
